According to patent US20240288449A1, “METHODS FOR DIAGNOSING A CANCER- OR ANTIBIOTICS-INDUCED DYSBIOSIS AND THEIR USE FOR IMPROVING CANCER TREATMENT BY IMMUNOTHERAPY” (INSTITUT GUSTAVE ROUSSY, priority 2021, published 2024):

Key:
[1] = test system: MAdCAM-1 (Madcam1 gene expression); assay: Madcam1 gene and protein expression in gut tissues of mice (RT-PCR, IHC, flow cytometry, ELISA); format: in vivo, C57BL/6J mice; conditions: for Madcam1 gene expression in mesenteric lymph nodes (mLN) / Madcam1 gene expression in ileal LP: single antibiotic regimen, 7 days conditioning
Method: (§1) Antibiotic treatments. If not indicated otherwise, mice were treated with a broad spectrum antibiotic solution (ATB) containing ampicillin (1 mg/ml), streptomycin (5 mg/ml), and colistin (1 mg/ml) (Sigma-Aldrich) added to the sterile drinking water of mice. In experiments where single antibiotics were used the concentrations were ampicillin (1 mg/ml), streptomycin (5 mg/ml), colistin (1 mg/ml), erythromycin (1 mg/ml) or ciprofloxacin (0.1 mg/ml) respectively. Solutions and bottles were changed 2 times weekly. Antibiotic activity, in the experiments where the antibiotic mix was used, was confirmed by cultivating fecal pellets resuspended in BHI+15% glycerol at 0.1 g/ml on COS (Columbia Agar with 5% Sheep Blood) plates for 48 h at 37° C. in aerobic and anaerobic conditions weekly. Duration of ATB treatment was slightly different (7-14 days before aPD-1 treatment) based on the experimental settings and is indicated in results for each experiment. In brief, to compromise the efficacy of anti-PD-1 mAb, mice were treated with ATB for one to two weeks before tumor implantation and ATB was continued throughout the experiment or discontinued on the day of anti PD-1 treatment initiation as indicated in the individual experiment. In the context of fecal microbial transplantation experiments, mice received 3 days of ATB before undergoing fecal microbial transplantation the next day by oral gavage using animal feeding needles. In the TC-1 model, ATB treatment was started 3 days before tumor injection and discontinued one day before the first bacterial gavage.
Oral bacterial gavage with commensal species. Akkermansia muciniphila CSUR P2261, and A. indistinctus CSUR P723 were provided by the Institut hospitalo-universitaire Méditerranée Infection, Marseille, France. Enterococcus hirae 13144 isolates were originally isolated from spleens or mesenteric lymph nodes of SPF mice treated with CTX at Gustave Roussy Cancer Campus. A. muciniphila was grown on COS plates in an anaerobic atmosphere created using 3 anaerobic generators (Biomerieux) at 37° C. for at least 72 h. E. hirae 13144 were grown on 5% sheep blood enriched Columbia agar for 24 h at 37° C. in aerobic conditions. Colonization of ATB pre-treated or GF C57BL/6 mice was performed by oral gavage with 100 μl of suspension containing 1×10^8 bacteria. For bacterial gavage: suspensions of […] were obtained using a fluorescence spectrophotometer (Eppendorf) at an optical density of 600 nm in PBS. Five bacterial gavages were performed for each mouse, the first 24 h before the first injection of antiPD-1 mAb and subsequently four times on the same day as anti-PD-1 mAb injection. The efficacy of colonization with E. hirae 13144 was confirmed by culturing the feces 48 h post gavage. Fecal pellets were harvested and resuspended in BHI+15% glycerol at 0.1 g/ml. Serial dilutions of feces were plated onto 5% sheep blood enriched Columbia agar and incubated for 48 h at 37° C. in aerobic and anaerobic conditions. After 48 h, single colonies were isolated and Gram staining was performed. The identification of specific bacteria was accomplished using a Matrix-Assisted Laser Desorption/Ionisation Time of Flight (MALDI-TOF) mass spectrometer (Andromas, Beckman Coulter, France).
RNA extraction and rtPCR. Lysis and extraction protocols were identical for human and mouse samples. Tumor or intestinal samples were snap frozen in liquid nitrogen in RLT Plus buffer containing 0.1% beta mercaptoethanol. On the day of extraction samples were thawed at 4° C. and homogenized on a microtube homogenizer (Benchmark Scientific) in RNA free glass bead tubes (Dutscher). Total RNA extraction and genomic DNA removal were performed with the RNeasy Mini kit (Qiagen), following the manufacturer's recommendations. […]

[2] = test system: metastatic clear cell renal cell carcinoma (RCC); assay: NIVOREN trial, second line anti-PD1 in renal cell carcinoma patients; format: in vivo, human
[3] = test system: RORγt+ Treg (Tr17) in MCA205 and 4T1 tumors; assay: Flow cytometry of tumor infiltrating lymphocytes and mLN (Tr17 subsets); format: in vivo, mice; conditions: oral gavage after ATB stop, s.c. MCA205, αPD-1-based therapy
Method: as §1, with “In the context of fecal microbial transplantation experiments, mice received 3 days of ATB before undergoing fecal microbial transplantation the next day by oral gavage using animal feeding needles. In the TC-1 model, ATB treatment was started 3 days before tumor injection and discontinued one day before the first bacterial gavage.” left out
Subcutaneous model of MCA-205 sarcoma, MC38 and RET melanoma. […] Tumor length and width was routinely monitored every 3 times per week by means of a caliper. […]

[4] = test system: metastatic bladder cancer; assay: STRONG study, Durvalumab in pre-treated metastatic bladder cancer patients; format: in vivo, human; conditions: 79 patients, 1500 mg iv /4 weeks
Method: Finally, we sought to triplicate the predictive value of sMAdCAM-1 in a subcohort of a Phase 3a trial enrolling pre-treated metastatic bladder cancer patients to receive a fixed dose of 1500 mg of Durvalumab iv (anti-PD-L1 Abs)/4 weeks. In this STRONG study, 79 patients only were analyzed, with an overall median OS of 5.79 months, and a median PFS of 2.79 months. We selected the extreme of the STRONG cohort, 30 Elite patients (OS>6 months, PFS>5 months, PR+CR only) and rapid progressors (n=49, with OS<6 months and PFS<5 months and PD at the first CT scan). In this cohort, the MAdCAM-1 median (min,max) was 158.8 ng/ml (53.41, 244.36).

[5] = NIVOREN trial, N=729 RCC patients

Q: `CC[C@H]1OC(=O)[C@H](C)[C@@H](O[C@H]2C[C@@](C)(OC)[C@@H](O)[C@H](C)O2)[C@H](C)[C@@H](O[C@@H]2O[C@H](C)C[C@H](N(C)C)[C@H]2O)[C@](C)(O)C[C@@H](C)C(=O)[C@H](C)[C@@H](O)[C@]1(C)O` [erythromycin] was tested. Which “Madcam1 gene expression in mesenteric lymph nodes (mLN)” value (shortened to “Madcam1 gene expression … (mLN)”) ([1]; RT-PCR) did it give?
A: downregulate

Q: With Nivolumab: anti-PD1 mAb as the molecule, how does the complete responses [2, 5] read?
A: 1.2%

Q: What about the objective response rate [2, 5] of the same molecule?
A: 20.8%

Q: What about the partial responses [2, 5] of the same molecule?
A: 19.6%

Q: What about the “progressive diseases (PD)” value [2, 5] of the same molecule?
A: 79.2%

Q: What about the “Best response: Partial response” value ([2]; Overall (n = 212) RCC patients) of the same molecule?
A: (7.1) %

Q: And the “Best response: Progressive disease” value ([2]; Overall (n = 212) RCC patients)?
A: (49.7) %

Q: How did the “Madcam1 ileal gene expression” value ([1]; oral supplementation of FMT recipients) turn out when Lactobacillus reuteri was run?
A: could further influence

Q: What about the “Tr17 recruitment promoted by PD1 inhibition” value [3] of the same molecule?
A: failed to do so

Q: Which “median PFS” value [4] does the source give for Durvalumab: anti-PD-L1 Abs here?
A: 2.79 months

Q: And the “overall median OS” value [4]?
A: 5.79 months

Q: How did the “Madcam1 gene expression in ileal LP” value ([1]; RT-PCR) turn out when `CN[C@H](CC(C)C)C(=O)N[C@H]1C(=O)N[C@@H](CC(N)=O)C(=O)N[C@H]2C(=O)N[C@H]3C(=O)N[C@H](C(=O)N[C@H](C(=O)O)c4cc(O)cc(O)c4-c4cc3ccc4O)[C@H](O)c3ccc(c(Cl)c3)Oc3cc2cc(c3O[C@@H]2O[C@H](CO)[C@@H](O)[C@H](O)[C@H]2O[C@H]2C[C@](C)(N)[C@H](O)[C@H](C)O2)Oc2ccc(cc2Cl)[C@H]1O` [vancomycin] was run?
A: upregulated

Q: What about the “Madcam1 gene expression … (mLN)” value ([1]; RT-PCR) of the same molecule?
A: failed to downregulate

Q: How did the “Madcam1 gene expression in Peyers' patches (PP)” value ([1]; RT-PCR) turn out when `[H]/N=C(/N)N[C@H]1[C@H](O)[C@@H](O)[C@H](O[C@@H]2O[C@@H](C)[C@](O)(C=O)[C@H]2O[C@@H]2O[C@@H](CO)[C@H](O)[C@@H](O)[C@@H]2NC)[C@@H](N/C(N)=N\[H])[C@@H]1O` [streptomycin] was run?
A: downregulated

Q: And the “Madcam1 gene expression in ileal LP” value ([1]; RT-PCR)?
A: downregulated

Q: And the “Madcam1 gene expression … (mLN)” value ([1]; RT-PCR)?
A: downregulated

Q: How did the “Madcam1 gene expression … (mLN)” value ([1]; RT-PCR) turn out when `CC1(C)S[C@@H]2[C@H](NC(=O)[C@H](N)c3ccccc3)C(=O)N2[C@H]1C(=O)O` [ampicilline, ampicillin] was run?
A: downregulate
